Measured values as given in US4931498A, “Immobilized artificial membranes” (Purdue Research Foundation, priority 1988, dated 1990).
Square brackets hold non-standard residues; d marks the D form. Ends that are not written are not given here. Peptide text beside a SMILES is read from it.

How the values were obtained:
[1] = HPLC elution on Nucleosil-lecithin (immobilized artificial membrane) column; type: physicochemical; parameters: Elution times: unit not given beside the values; conditions: for Elution times: Nucleosil-lecithin column, mobile phase isotonic buffered saline at 1.0 ml/min, detection at 260 nm; for Elution Volumes on Nucleosil-Lecithin, Mobile Phase 0.1% TFA: peptides dissolved in 0.1% aqueous TFA; for Elution Volumes on Nucleosil-Lecithin, Mobile Phase 0.1% TFA / Elution Volumes on Nucleosil-Lecithin, Mobile Phase PBS: detection 220 nm; for Elution Volumes on Nucleosil-Lecithin, Mobile Phase PBS: mobile phase isotonic phosphate buffered saline (pH 7.34)
Experimental: A 4 mm×100 mm HPLC column was packed with about one gram of Nucleosil-lecithin (pooled from several preparations above) using a Shandon column packer. Excess Nucleosil-lecithin (1.45 grams) was suspended in 15 ml of degassed methanol and then sonicated 5 minutes to assure particle dispersion. The dispersion was transferred to the 30-ml slurry reservoir on the column packer, and 15 ml of degassed methanol was added to fill the reservoir. The column was packed at 4500 psi.
The HPLC elution properties of the Nucleosil-lecithin column were evaluated.
Separation of 2-deoxycytidine (C), 2-deoxyuridine (U), 2'-deoxyguanosine (G) and 2'-deoxyadenosine (A) was effected using isotonic buffered saline as the mobile phase at 1.0 ml/min with detection at 260 nm. Elution times were as follows: C - 1.175; U - 1.465; G - 1.730; and A - 2.090.
FIG. 11 is a chromatogram for a mixture of Peptides I and II, dissolved in 0.1% aqueous trifluoracetic acid (TFA) and detected at 220 nm. In FIG. 11 the mobile phase was isotonic phosphate buffered saline (pH 7.34). FIG. 12 is a chromatogram for a mixture of Peptides III and IV, dissolved in 0.1% aqueous trifluoracetic acid (TFA) and detected at 220 nm. In FIG. 12 the mobile phase was 0.1% TFA.

[2] = HPLC elution on cholesterol-loaded Nucleosil-lecithin column; type: physicochemical; conditions: for Elution Volumes by Mobile Phase, H2O: mobile phase water
Experimental: The Nucleosil-lecithin chromatography support material was then "loaded" with cholesterol in situ using the following procedure.
A solution of 80 ml of 1 mg/ml cholesterol in MeOH:isopropanol/8:2 was pumped through the Nucleosil-lecithin using a Bendex pump. […] Approximately […] was recovered in the effluent showing that 40 mg of cholesterol was loaded onto the Nucleosil-lecithin column. This is approximately 50% by weight of the bonded phase. The Nucleosil-lecithin/cholesterol column containing MeOH/isopropanol was attached to the HPLC and eluted with water (approximately 100 ml). The mobile phase was changed to 0.1% TFA and peptides dissolved in 0.1% TFA were injected to determine the elution volumes. The mobile phase was changed to water and the peptides were reinjected after the column was equilibrated with 100 ml of water to determine the elution volumes. The column was washed with PBS buffer (100 ml) and the peptides were again injected to determine elution volumes using PBS as the mobile phase.

Compound	Elution times [1]	Elution Volumes by Mobile Phase, 0.1% TFA [2]	Elution Volumes on Nucleosil-Lecithin, Mobile Phase 0.1% TFA [1]	Elution Volumes on Nucleosil-Lecithin, Mobile Phase PBS [1]	Elution Volumes by Mobile Phase, PBS [2]	Elution Volumes by Mobile Phase, H2O [2]
O=c1ccn([C@H]2C[C@H](O)[C@@H](CO)O2)c(=O)[nH]1 [2-deoxyuridine]	1.465	–	–	–	–	–
Nc1ccn([C@H]2C[C@H](O)[C@@H](CO)O2)c(=O)n1 [2-deoxycytidine]	1.175	–	–	–	–	–
CGYGSTWP [Peptide V, NH2 C-G-Y-G-S-T-W-P--COOH]	–	6.6	–	–	–	–
Nc1nc2c(ncn2[C@H]2C[C@H](O)[C@@H](CO)O2)c(=O)[nH]1 [2'-deoxyguanosine]	1.730	–	–	–	–	–
YGSTWPG [Peptide II, NH2 Y-G-S-T-W-P-G-COOH]	–	2.7	3.1	7.6	4.8	6.6
HIFNQ-NH2 [Peptide VI, NH2 H-I-F-N-QNH2]	–	1.0	–	5.8	4.2	0.8
MPSWTGGC [Peptide III, NH2 M-P-S-W-T-G-G-C--COOH]	–	5.3	9.4	10.0	6.9	9.2
CSCC[C@@H](N)C(=O)N1CCC[C@@H]1C(=O)N[C@H](CO)C(=O)N[C@H](Cc1c[nH]c2ccccc12)C(=O)N[C@@H](C(=O)NCC(=O)NCC(=O)N[C@H](CS)C(=O)O)[C@H](C)O [Peptide VIII, NH2 d,M-d,P-d,S-d,W-d,T-G-G-d,C--COOH] (H-[dM][dP][dS][dW][dT]GG[dC]-OH)	–	5.0	–	–	6.5	3.0
Ac-HIFNQ-NH2 [Peptide VII, NacH-I-F-N-QNH2]	–	1.3	–	3.8	3.2	0.8
YGSTWPGC [Peptide I, NH2 Y-G-S-T-W-P-G-C--COOH]	–	5.3	7.3	13.1	7.9	7.3
Nc1ncnc2c1ncn2[C@H]1C[C@H](O)[C@@H](CO)O1 [2'-deoxyadenosine]	2.090	–	–	–	–	–
MPSWTGG [Peptide IV, NH2 M-P-S-W-T-G-G-COOH]	–	2.9	4.1	4.2	5.0	4.9
